Results: PubChem BioAssay AID489022 (Sanford-Burnham Center for Chemical Genomics, 2010)
The source made the active and inactive calls. How the calls were made is not given here.

Test system: HEK-293T NF-kB luciferase reporter, luminescence counterscreen
Assay: NF-kB reporter suppression in HEK-293T cells – luminescence, B-cell screen hits, counter-screen for BCR NF-kB inhibitor project, dose response (AID 489022)

Structure (SMILES) | IC50
CC1=CC(C)(C)Nc2ccc(OC(=O)CN3C(=O)c4ccccc4C3=O)cc21 | 9.25 µM
O=C(CCCc1nc(-c2ccccc2Cl)no1)NC1CCCC1 | 27.1 µM (inactive)
Cn1c(=O)cc(SCC(=O)N2CCCC2)c2cc(Cl)ccc21 | > 80 µM (inactive)
O=C(CCCN1C(=O)S/C(=C\C=C\c2ccccc2)C1=O)Nc1ccc(O)cc1 | > 80 µM (inactive)
O=C(CCCN1C(=O)/C(=C/c2ccccc2Cl)SC1=S)Nc1ccccn1 | 23.7 µM (inactive)
Cc1ccc(Nc2nc(N/N=C\c3ccc4c(c3)OCO4)nc(N3CCOCC3)n2)cc1 | > 80 µM (inactive)
O=C(Oc1cccc(/C=N/Nc2nc(Nc3ccccc3)nc(N3CCOCC3)n2)c1)c1ccco1 | > 80 µM (inactive)
CCC(C)(C)c1ccc(OCCCC[n+]2ccccc2)c(C(C)(C)CC)c1 | 8.65 µM
COc1ccc(C(=O)Nc2nnc(Cc3cccs3)s2)cc1OC | > 80 µM (inactive)
COc1ccc(-c2ccc(F)cc2)cc1[C@H]1[C@H]2C=CC[C@@H](C)[C@@H]2C(=O)N1Cc1ccccc1 | 13.1 µM
O=C(CN1C(=O)c2ccccc2S1(=O)=O)N1CCc2ccccc21 | 0.897 µM
Cc1ccc(CSc2nnc(SCC(=O)N/N=C/C=C/c3ccccc3[N+](=O)[O-])s2)cc1 | 34.8 µM (inactive)
COc1ccc(C(=O)N/N=C/c2ccc(OC)c(CN3CCCc4ccccc43)c2)cc1 | > 80 µM (inactive)
Cc1ccc(/C=C2\SC(=S)N(CCCC(=O)NNC(=O)c3ccccc3O)C2=O)cc1 | 5.48 µM
Cc1c(CCC(=O)N2CCC[C@H]2C(=O)O)c(=O)oc2cc3oc4c(c3cc12)CCCC4 | 8.43 µM
Cn1nnnc1Sc1ncnc2scc(Br)c12 | 4.26 µM
Cc1nn(C(C)(C)C)c(C)c1/C=N/OC(=O)Nc1ccc(Cl)c(Cl)c1 | < 0.16 µM
CCc1ccc2nc(Nc3nc(COC)cc(=O)[nH]3)nc(C)c2c1 | 46.4 µM (inactive)
COc1ccc(OCc2cccc(C(=O)NN)c2)cc1 | 17.4 µM
ClCc1nnc(-c2ccccc2)o1 | > 80 µM (inactive)
O=C(c1cc2nc(-c3ccccc3)cc(-c3ccccc3)n2n1)N1CCN(C(=O)c2ccco2)CC1 | 11 µM
C=CCOc1ccc(/C=C2\SC(=S)N(CCC(=O)O)C2=O)cc1 | 51.4 µM (inactive)
Cc1ccc(C(=O)C[n+]2cc(-c3ccc(C)cc3)n3c2CCCCC3)cc1 | 4.44 µM
COc1ccc(OC)c(C2CC(=O)Nc3cc(OC)c(OC)c(OC)c32)c1 (configuration not stated) | > 80 µM (inactive)

Structure (SMILES) | IC50
CC(C)(C)c1ccc(-c2noc(CCC(=O)NCC3CCCO3)n2)cc1 (configuration not stated) | 1.22 µM
O=C(CCl)N(c1ccc(Cl)cc1)c1c[nH]c2ccccc12 | 10.8 µM
Cc1cc(C)cc(OCc2nnc(SCC(=O)c3ccccc3)o2)c1 | 23.7 µM (inactive)
O=C1CCCc2c1[nH]c1ccc(CN3CCCCC3)cc21 | > 80 µM (inactive)
N=c1c2c(n(Cc3ccc(Cl)cc3Cl)c3c1CCC3)CCCC2 | 3.43 µM
Cc1nnc2c3ccccc3c(-c3ccccc3)nn12 | 61.4 µM (inactive)
Cc1ccoc1C(=O)Nc1ccc(CC(=O)O)cc1 | 14.2 µM
CCN(CC(=O)Nc1c(F)cccc1F)C(=O)c1cc(S(=O)(=O)N2CCOCC2)ccc1N1CCCC1 | > 80 µM (inactive)
CCN(CC)c1ccc2cc(NC(=O)CCC(=O)O)c(=O)oc2c1 | 1.38 µM
CC(=O)c1cccc(S(=O)(=O)Nc2cc(C(F)(F)F)ccc2N2CCOCC2)c1 | > 80 µM (inactive)
C=CCOC(=O)COc1cc(C)cc2oc(=O)c3c(c12)CCC3 | > 80 µM (inactive)
Cc1cc(OCC(=O)Nc2ccc(CCO)cc2)c2c(C)c(C)c(=O)oc2c1 | > 80 µM (inactive)
Cc1nn(-c2ccc(N3CCCCC3)nn2)c(C)c1CCC(=O)Nc1ccccc1F | 73.3 µM (inactive)
O=C(N/N=C/c1cccnc1)c1cc(-c2ccccc2OCc2ccccc2)n[nH]1 | 12.7 µM
CC1CCC/C=C/C2CC(O)CC2C(O)/C=C/C(=O)O1 (configuration not stated) | 0.53 µM
Cc1ccc(C(=O)CSc2nnc(COc3cccc(C)c3)o2)cc1 | 21.6 µM (inactive)
CCOc1ccc(-c2cc(CCCC(=O)NCc3ccc(C)cc3)no2)cc1 | 70.9 µM (inactive)
CCOC(=O)N1CCN(CC(=O)Nc2ccc([N+](=O)[O-])cc2C(=O)Nc2ccccc2F)CC1 | 29.4 µM (inactive)
COc1ccc(S(=O)(=O)Nc2cc3c(C(C)=O)c(C)oc3c3ccccc23)cc1 | > 80 µM (inactive)
COCCCn1c(=O)/c(=C\c2cccc(OC)c2OC)s/c1=C(/C#N)C(=O)Nc1ccc(C(=O)O)cc1 | 34.1 µM (inactive)
COc1ccc(/C=C2\SC(=O)N(CCCC(=O)Nc3ccc(C(=O)O)cc3)C2=O)cc1OC | > 80 µM (inactive)
CCC(CO)Oc1cc(NCc2ccccc2O)c2ncn(C(C)C)c2c1 (configuration not stated) | 4.79 µM
CCn1c(=O)cc(OCC(=O)N(C)C2CCCCC2)c2ccccc21 | > 80 µM (inactive)
COc1ccc(/C=C2\SC(=S)N(CCCC(=O)NNC(=O)c3ccccc3O)C2=O)cc1 | 2.28 µM

Structure (SMILES) | IC50
CC(C)(C)c1ccc(-c2noc(CCC(N)=O)n2)cc1 | 0.27 µM
Cn1c(=O)n(C)c2cc(NS(=O)(=O)c3ccccc3)ccc21 | 59.3 µM (inactive)
COc1ccc(CC(=O)Nc2cccc(-c3ccc4nnc(C)n4n3)c2)cc1 | 41.8 µM (inactive)
COc1ccccc1/C=C1\SC(=S)N(CCC(=O)Nc2cccc(O)c2)C1=O | > 80 µM (inactive)
COc1ccccc1/C=C1\SC(=S)N(CCC(=O)NC2=NCCS2)C1=O | > 80 µM (inactive)
O=C(CN1C(=O)c2ccccc2S1(=O)=O)c1ccc(OC(F)F)cc1 | 5.26 µM
CC1=CC(C)(C)Nc2ccc(OC(=O)c3cccnc3)cc21 | 16.1 µM
COc1ccc(NC(=S)NCc2ccccc2)c(OC)c1 | > 80 µM (inactive)
COc1ccc(-n2c(-c3ccc(Cl)cc3)c[n+]3c2CCc2ccccc2-3)cc1 | 3.18 µM
COc1ccc(OCc2cccc(C(=O)Nc3cc(C)on3)c2)cc1 | 50.6 µM (inactive)
CCN(CC(=O)Nc1c(F)cccc1F)C(=O)c1cc(S(=O)(=O)N(CC)CC)ccc1N1CCCCC1 | 26.8 µM (inactive)
O=C(CCCN1C(=O)S/C(=C/C=C/c2ccccc2)C1=O)Nc1ccc(C(=O)O)cc1 | > 80 µM (inactive)
CC1=CC(C)(C)Nc2ccc(OC(=O)C(Cc3ccccc3)N3C(=O)c4ccccc4C3=O)cc21 (configuration not stated) | > 80 µM (inactive)
CCOc1ccc(S(=O)(=O)NCc2ccncc2)cc1NC(=O)c1ccccc1 | 1.37 µM
CCC(=O)N1c2ccccc2[C@@H](N(C(C)=O)c2ccccc2)C[C@H]1C | 39.2 µM (inactive)
Cn1c(=O)c2c(SCC(=O)Nc3ccccc3F)nc(-c3ccccc3F)nc2n(C)c1=O | > 80 µM (inactive)
COc1ccc(C(=O)Nc2ccc(OC)c([N+](=O)[O-])c2)cc1Br | > 80 µM (inactive)
CNC(=O)c1cc(Nc2nnc(-c3ccc(O)cc3)c3ccccc23)ccc1OC | > 80 µM (inactive)
Nc1ccc(-c2cc3ccccc3oc2=O)cc1 | 3.53 µM
COc1ccccc1/C=C1\SC(=S)N(CCC(=O)Nc2cc(C)on2)C1=O | > 80 µM (inactive)
N#Cc1ccccc1COc1ccc(/C=C/C(=O)O)cc1 | 6.03 µM
CCN1C(=O)c2cccc3c(S(=O)(=O)NCC4CCCO4)ccc1c23 (configuration not stated) | 54.5 µM (inactive)
O=C(CCCN1C(=O)S/C(=C\c2ccccc2)C1=O)NNC(=O)c1ccccc1O | 1.64 µM
O=C(Nc1nc2c(Br)cc(Br)cc2c(=O)s1)c1ccco1 | > 80 µM (inactive)
